Data from patent publication US5420261A, “Glycosides of 3'-deoxyaquayamycin antibiotics” (Schering Corporation, priority 1992, dated 1995).
Values after ≈ are worked out from the molar mass of the structure shown. Like-named read-outs stand apart in the source and are kept apart here.

Experiments:
Candida (8 species) = assay: In vitro antifungal activity in Sabouraud dextrose broth, Candida (8 species); assay type: cell-based; details: read-out: GEOMETRIC MEAN MIC
[1] = system: Dermatophytes (seven species); assay: In vitro antifungal activity in Sabouraud dextrose broth, dermatophytes (seven species); assay type: cell-based; details: read-out: GEOMETRIC MEAN MIC
Mycelial = assay: In vitro activity in Eagles Medium Essential Medium (EMEM), Mycelial; assay type: cell-based; details: read-out: GEOMETRIC MEAN MIC
C. abicans = assay: Bioautography after thin layer chromatography, C. abicans; assay type: cell-based; details: TLC in 2:2:1 chloroform: methanol: pH 3.5 acetate buffer
From the text: (§1) The medium employed for the fermentation contained beef extract, tryptone, yeast extract, cerelose and soluble starch as the major sources of nitrogen and carbon, respectively.

E. coli = assay: Bioautography after thin layer chromatography, E. coli; assay type: cell-based; details: TLC in 2:2:1 chloroform: methanol: pH 3.5 acetate buffer
From the text: as §1

S. aureus = assay: Bioautography after thin layer chromatography, S. aureus; assay type: cell-based; details: TLC in 2:2:1 chloroform: methanol: pH 3.5 acetate buffer
From the text: as §1

Solubility = assay type: physicochemical
[2] = Sabouraud Dextrose Broth Medium, Candida (8 species)
[3] = Sabouraud Dextrose Broth Medium, Dermatophytes (seven species)

| Compound | MIC (Candida (8 species); Candida) | MIC [1] | MIC (Mycelial) | biological activity by bioautography (C. abicans) | MIC (Candida (8 species); [2]) | biological activity by bioautography (E. coli) | MIC [1, 3] | biological activity by bioautography (S. aureus) | solubility in dichlormethane, chloroform and dimethyl sulfoxide (Solubility) | solubility in hexane and water (Solubility) | solubility in methanol, diethyl ether and ethyl acetate (Solubility) |
| --- | --- | --- | --- | --- | --- | --- | --- | --- | --- | --- | --- |
| COc1cccc2c1C(=O)c1c(O)c3c(c(O)c1C2=O)C[C@@](O)(C(=O)CO)C[C@@H]3O[C@H]1C[C@H](N)[C@H](O)[C@H](C)O1 [Adriamycin, reference compound] | ≥ 128 µg/mL | ≥ 128 µg/mL | 128 µg/mL (≈ 235 µM) | – | – | – | – | – | – | – | – |
| CC1OC(OC2CCC(c3ccc4c(c3O)C(=O)C3=C(C4=O)C4(O)C(=O)CC(C)(OC5C=CC(=O)C(C)O5)CC4(O)C=C3)OC2C)C=CC1=O (stereo not drawn) [Compound 1a] | – | – | 78 µg/mL (≈ 113 µM) | biologically active | ≥ 43 µg/mL | biologically active | ≥ 5 µg/mL | biologically active | soluble in dichlormethane, chloroform and dimethyl sulfoxide | insoluble in hexane and water | less soluble in methanol, diethyl ether and ethyl acetate |
| CC1OC(OC2(C)CC(=O)C3(O)C4=C(C=CC3(O)C2)C(=O)c2c(ccc(C3CCC(OC5CCC(O)C(C)O5)C(C)O3)c2O)C4=O)C=CC1=O (stereo not drawn) [Compound 1b] | – | – | 95 µg/mL (≈ 137 µM) | biologically active | ≥ 128 µg/mL | biologically active | ≥ 132 µg/mL | biologically active | soluble in dichlormethane, chloroform and dimethyl sulfoxide | insoluble in hexane and water | less soluble in methanol, diethyl ether and ethyl acetate |
